# Assays:
# [1] = test system: first-line AML patients treated with CYT+IDA; experiment: Validation of PM Test score vs clinical response in 112 first-line AML samples; format: in vivo, human; settings: 112 AML patients treated with CYT+IDA
# From the text: The Precision Medicine (PM) Test as described ranks treatments by a score that estimates the activity of each treatment across a population of patient samples. Higher score represents more ex vivo sensitivity to treatment, while lower score represents less ex vivo sensitivity to treatment, i.e. more ex vivo resistance. A particular format of the results of the PM Test is shown in FIG. 19, panels A and B, wherein the ranking of treatments by activity score from 100%=best to 0%=worst is shown (score may be represented graphically using a colour/tone gradient or categorisation). The following 3 categories are identified:
# To validate the predictive power of these PM Test score results, the set of 123 samples treated homogeneously with CYT+IDA that were used in the correlation study of Example 1 were employed. Only 112 samples were used for validation. To evaluate the predictive power of the PM Test score, in the format shown in FIG. 19, panel A referring to a sensitive patient we can only use patients predicted to be sensitive or resistant. Treatments having intermediate scores are not considered sufficiently strong to predict any response. In the case of intermediate scores, other factors such as pharmacokinetics may be more important than the score. On the other hand, extreme scores are more likely to prevail over other factors such as pharmacokinetics.
# The set of data of 112 patients treated with CYT+IDA represents a 1st line treatment of AML with a 72% response rate. This means that 72% of these 112 patients achieved Complete Remission (CR) clinically. The majority of patients were sensitive, with fewer resistant patients. Thus, the statistics are improved by calculating the % of cases in which the PM Test score predicted patients to be sensitive to the ex vivo treatment. This means selecting only the treatments to which the patient is expected to be very sensitive, with scores between 80-100%. The % of accurate prediction of sensitive (responsive) patients is referred as the Negative Predicted Value (NPV).
# Samples whose score are between this variable threshold and 100% are analysed and predicted as sensitive because they have the top score. The results are shown for the monotherapies CYT and IDA, and for the combination treatment. Focus was placed on the combination treatment CYT+IDA that was administered to patients. Columns 8 to 10 of Table 4 show the results for the combined treatment CYT+IDA for different thresholds. The lowest threshold 55%, which means between 55 and 100%, identifies 93 out of the 112 samples, that would be predicted as sensitive. […] Thus, the prediction accuracy or NPV is 77/93=82.8%. As the threshold is increased (descending the 1st column of Table 4), the range of scores included is narrowed because the maximum is always 100%. Consequently, as the threshold is increased, the total number of samples included diminishes, reaching 0 samples at 100% (100-100%) and 18 samples at 95%. The decrease can be observed in the number of either sensitive or resistant samples (descending columns 8 and 9 of Table 4). […] Thus, the higher the score, the better the prediction (moreover, the intermediate sensitivity values provide less accurate prediction than the extreme values).
# [2] = test system: bone marrow samples of acute lymphoid leukemia (ALL) patients; experiment: Ex vivo test of single drugs, EC50 compared with population distribution, acute lymphoid leukemia samples; format: cell-based, human
# Procedure: (§1) Bone marrow samples were obtained from three adult patients diagnosed with MM (VIVIA-PMMM010431, VIVIA-PMMM060111 and VIVIA-PMMM130061) and three adult patients diagnosed with ALL (VIVIA-PMALL07002, VIVIA-PMALL04001 and VIVIA-PMALL09001). Following the same experimental design as described for examples 1 and 3, said bone marrow samples were incubated for 48 h in well plates containing the single drugs shown in FIGS. 21 to 26. After the measurement of pathological populations by flow cytometry, pharmacological response parameters were estimated using population pharmacodynamic models. The most representative parameter of drug potency, the EC50, was used for a comparative analysis of the results provided by said bone marrow samples with respect to the statistical distribution of the same parameter observed in a population of samples and stored in the database. Such populations varied in size depending on the drug, being always over one hundred individuals in the case of MM and between 15 and 21 individuals in the case of ALL.
# [3] = test system: live pathological cells (LPC) in bone marrow samples of AML patients; experiment: PharmaFlow PM test: ex vivo drug sensitivity of whole bone marrow samples, population pharmacodynamic models; format: cell-based, human; settings: typical population value
# Procedure: Ex vivo drug sensitivity analysis was made using the PharmaFlow platform (previously termed ExviTech®) maintaining the bone marrow (BM) microenvironment. A minimum BM sample volume between one and two mL was collected by aspiration at AML diagnosis, before starting induction chemotherapy, and was processed by an automated method 24 hours after extraction. Samples were incubated with CYT, IDA and/or CYT+IDA for 48 hours. A more detailed description of the procedure has been published elsewhere (Bennett, et al 2014).
# Evaluation of drug response was done by counting the number of live pathological cells (LPC) remaining after incubation at increasing drug concentrations (Upton and Mould 2014). Dying cells (apoptosis) were excluded using Annexin V-FITC. Pharmacological responses were analyzed using PD population-based models (Upton and Mould 2014) which essentially perform the fitting of the dependent variable (natural log of LPC) in a non-linear mixed-effects model to derive typical population values (fixed effects) and the magnitude of inter-patient and residual variability (random effects).
# Model development was performed with the first-order conditional estimation method using interaction option with the software NONMEM (v7.2) (Beal, et al 1989-2001), according to the following equation: […]
# Where LPC0 (LCTi0) parameter refers to the number of LPC (LCTi) after incubation in the absence of drug, Emax represents the maximum fractional decrease in LPC that the drug can elicit, EC50, is the drug concentration exerting half of Emax, and γ is the parameter governing the steepness of the LPC vs drug concentration (C) curve. For interaction analysis a Surface Interaction model (Greco, et al 1995) was used to estimate the degree of synergy, referred as a parameter, between both drugs. Interpatient variability (IPV) associated to all parameters was described by means of an exponential model of the components of variance. An additive error structure was used for the residual variability. Population PD models were built with bone marrow (BM) samples from 473 patients that were incubated with CYT, 456 with IDA and 443 with CYT+IDA. Bayesian estimation methods were then used to retrieve individual patient parameters based on their available exposure-response measurements in conjunction with the PD population parameters.
# Individual response profiles normalized with respect to LPC0 (LCTi0), were integrated between the concentration points corresponding to the 20th and 80th percentiles of the distribution of estimated individual EC50 values, to obtain the values of the areas under the curves (AUCs) that were used as a descriptor of the ex vivo drug effect (i.e. the higher the AUC, the lower the cytotoxic effect (efficacy or potency) of the drug.
# [4] = test system: bone marrow samples of multiple myeloma (MM) patients; experiment: Ex vivo test of single drugs, EC50 compared with population distribution, multiple myeloma samples; format: cell-based, human
# Procedure: as §1
# [5] = ALL second line patient VIVIA-PMALL04001, 48 h
# [6] = MM patient VIVIA-PMMM010431, 48 h
# [7] = MM patient VIVIA-PMMM130061, 48 h
# [8] = MM patient VIVIA-PMMM060111, 48 h
# [9] = ALL patient VIVIA-PMALL07002, 48 h
# [10] = ALL patient VIVIA-PMALL09001, 48 h
molecule,measurement,setting,value
"Nc1ccn([C@@H]2O[C@H](CO)[C@@H](O)[C@@H]2O)c(=O)n1 [Cytarabine, cytarabine]","% Sens. (percentage of patients sensitive to therapy, NPV)",[1]; PM Test score ≥55,84.8%
same,Res. (number of patients resistant to therapy),[1]; PM Test score ≥55,14
same,Sens. (number of patients sensitive to therapy),[1]; PM Test score ≥55,78
same,"% Sens. (percentage of patients sensitive to therapy, NPV)",[1]; PM Test score ≥60,85.7%
same,Res. (number of patients resistant to therapy),[1]; PM Test score ≥60,13
same,Sens. (number of patients sensitive to therapy),[1]; PM Test score ≥60,78
same,"% Sens. (percentage of patients sensitive to therapy, NPV)",[1]; PM Test score ≥65,85.4%
same,Res. (number of patients resistant to therapy),[1]; PM Test score ≥65,13
same,Sens. (number of patients sensitive to therapy),[1]; PM Test score ≥65,76
same,"% Sens. (percentage of patients sensitive to therapy, NPV)",[1]; PM Test score ≥70,85.1%
same,Res. (number of patients resistant to therapy),[1]; PM Test score ≥70,13
same,Sens. (number of patients sensitive to therapy),[1]; PM Test score ≥70,74
same,"% Sens. (percentage of patients sensitive to therapy, NPV)",[1]; PM Test score ≥75,86.1%
same,Res. (number of patients resistant to therapy),[1]; PM Test score ≥75,11
same,Sens. (number of patients sensitive to therapy),[1]; PM Test score ≥75,68
same,"% Sens. (percentage of patients sensitive to therapy, NPV)",[1]; PM Test score ≥80,86.1%
same,Res. (number of patients resistant to therapy),[1]; PM Test score ≥80,10
same,Sens. (number of patients sensitive to therapy),[1]; PM Test score ≥80,62
same,"% Sens. (percentage of patients sensitive to therapy, NPV)",[1]; PM Test score ≥85,87.1%
same,Res. (number of patients resistant to therapy),[1]; PM Test score ≥85,8
same,Sens. (number of patients sensitive to therapy),[1]; PM Test score ≥85,54
same,"% Sens. (percentage of patients sensitive to therapy, NPV)",[1]; PM Test score ≥90,85.2%
same,Res. (number of patients resistant to therapy),[1]; PM Test score ≥90,8
same,Sens. (number of patients sensitive to therapy),[1]; PM Test score ≥90,46
same,"% Sens. (percentage of patients sensitive to therapy, NPV)",[1]; PM Test score ≥95,83.7%
same,Res. (number of patients resistant to therapy),[1]; PM Test score ≥95,7
same,Sens. (number of patients sensitive to therapy),[1]; PM Test score ≥95,36
same,Res. (number of patients resistant to therapy),[1]; PM Test score ≥100,0
same,Sens. (number of patients sensitive to therapy),[1]; PM Test score ≥100,0
same,ex vivo activity,[2]; [5],intermediate-low activity
same,EC50,"[3]; Homo sapiens, AML bone marrow samples, 48 h incubation",6.94 µM
same,EMAX (maximum fractional decrease in LPC),"[3]; set to 1 in the model, 48 h",1
same,γ (steepness of LPC vs concentration curve),[3]; 48 h,0.684
Cn1c(CCCC(=O)O)nc2cc(N(CCCl)CCCl)ccc21 [bendamustine],EC50 relative to population distribution,[4]; [6],below the 10th percentile
same,ex vivo activity,[4]; [6],potent activity
same,ex vivo activity,[4]; [7],very weak activity
CC(C)C[C@H](NC(=O)[C@H](Cc1ccccc1)NC(=O)c1cnccn1)B(O)O [bortezomib],EC50 relative to population distribution,[4]; [6],below the first quartile
same,ex vivo activity,[4]; [6],potent activity
same,ex vivo activity,[4]; [8],intermediate activity
same,ex vivo activity,[4]; [7],very weak activity
O=P1(N(CCCl)CCCl)NCCCO1 (stereo not shown) [cyclophosphamide],ex vivo activity,[2]; [9],intermediate or high activity
COc1cccc2c1C(=O)c1c(O)c3c(c(O)c1C2=O)C[C@@](O)(C(C)=O)C[C@@H]3O[C@H]1C[C@H](N)[C@H](O)[C@H](C)O1 [daunorubicin],ex vivo activity,[2]; [9],intermediate or high activity
same,ex vivo activity,[2]; [10],high activity
same,ex vivo activity,[2]; [5],low activity or resistance
C[C@@H]1C[C@H]2[C@@H]3CCC4=CC(=O)C=C[C@]4(C)[C@@]3(F)[C@@H](O)C[C@]2(C)[C@@]1(O)C(=O)CO [dexamethasone],ex vivo activity,[4]; [8],no activity
O=C1c2c(O)ccc(O)c2C(=O)c2c(NCCNCCO)ccc(NCCNCCO)c21 [mitoxantrone],ex vivo activity,[2]; [5],low activity or resistance
C[C@]12C=CC(=O)C=C1CC[C@@H]1[C@@H]2[C@@H](O)C[C@@]2(C)[C@H]1CC[C@]2(O)C(=O)CO [prednisolone],ex vivo activity,[2]; [9],intermediate or high activity
same,ex vivo activity,[2]; [10],high activity
same,EC50 relative to population distribution,[4]; [6],below the 10th percentile
same,ex vivo activity,[4]; [6],potent activity
O=C1CCC(N2C(=O)c3ccccc3C2=O)C(=O)N1 (stereo not shown) [thalidomide],ex vivo activity,[4]; [7],very weak activity
CC[C@]1(O)C[C@H]2CN(CCc3c([nH]c4ccccc34)[C@@](C(=O)OC)(c3cc4c(cc3OC)N(C=O)[C@H]3[C@@](O)(C(=O)OC)[C@H](OC(C)=O)[C@]5(CC)C=CCN6CC[C@]43[C@@H]65)C2)C1 [vincristine],ex vivo activity,[2]; [9],intermediate or high activity
same,ex vivo activity,[2]; [10],high activity
same,ex vivo activity,[2]; [5],low activity or resistance
L-asparaginase,ex vivo activity,[2]; [9],intermediate or high activity

# — US20210358575A1, “A METHOD FOR DETERMINING THE EFFICACY OF TREATMENT WITH A COMBINATION OF DRUGS IN A SUBJECT DIAGNOSED WITH A DISEASE AND A METHOD FOR CLASSIFYING THE UTILITY OF DRUG COMBINATIONS IN TREATMENT OF SAID SUBJECT” (priority 2018, published 2021)
